Test results published in the supplement of paper PMC10307832.

What was measured:
Test in all cases: relative viability (nuclei count vs DMSO), 5 days (fraction); higher = more cells survive
[1] = test system: NCI-H2126
Outline: (§1)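 Each reported value is a median over duplicate plates. It expresses relative viability: treated-well nuclei count divided by vehicle-well nuclei count. Lung cancer cell lines in 1536-well plates were dosed by pin tool a day after seeding, alone with one drug or with a fixed anchor-drug dose plus five library-drug doses (not always all listed) in √10 steps, and nuclei were counted after 5 days.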

[2] = test system: COR-L 105
Outline: as §1

[3] = test system: ABC-1
Outline: as §1

[4] = test system: HCC-78
Outline: as §1

[5] = test system: EPLC-272H
Outline: as §1

[6] = test system: NCI-H1993
Outline: as §1

[7] = test system: NCI-H1915
Outline: as §1

[8] = test system: LXF-289
Outline: as §1

[9] = test system: EMC-BAC-2
Outline: as §1

[10] = test system: HCC-15
Outline: as §1

[11] = test system: UMC-11
Outline: as §1

[12] = test system: ChaGo-K-1
Outline: as §1

## CC1(C)CCC(c2ccc(Cl)cc2)=C(CN2CCN(c3ccc(C(=O)NS(=O)(=O)c4ccc(N[C@H](CCN5CCOCC5)CSc5ccccc5)c(S(=O)(=O)C(F)(F)F)c4)cc3)CC2)C1 [Navitoclax] + O=C(c1cc(Cc2n[nH]c(=O)c3ccccc23)ccc1F)N1CCN(C(=O)C2CC2)CC1 [Olaparib] (partner 8 µM)
[1]; first compound 0.05 µM
  relative viability: 0.847
[1]; first compound 0.1581 µM
  relative viability: 0.86
[1]; first compound 0.5 µM
  relative viability: 0.9
[2]; first compound 0.005 µM
  relative viability: 0.707
[2]; first compound 0.01581 µM
  relative viability: 0.749
[2]; first compound 0.05 µM
  relative viability: 0.664
[2]; first compound 0.1581 µM
  relative viability: 0.614
[2]; first compound 0.5 µM
  relative viability: 0.666
[3]; first compound 0.005 µM
  relative viability: 0.909
[3]; first compound 0.01581 µM
  relative viability: 0.783
[3]; first compound 0.05 µM
  relative viability: 0.838
[3]; first compound 0.1581 µM
  relative viability: 0.859
[3]; first compound 0.5 µM
  relative viability: 0.776
[4]; first compound 0.005 µM
  relative viability: 0.844
[4]; first compound 0.01581 µM
  relative viability: 0.776
[4]; first compound 0.05 µM
  relative viability: 0.696
[4]; first compound 0.1581 µM
  relative viability: 0.925
[4]; first compound 0.5 µM
  relative viability: 0.863
[5]; first compound 0.005 µM
  relative viability: 0.877
[5]; first compound 0.01581 µM
  relative viability: 0.79
[5]; first compound 0.05 µM
  relative viability: 0.644
[5]; first compound 0.1581 µM
  relative viability: 0.714
[5]; first compound 0.5 µM
  relative viability: 1.18
[6]; first compound 0.005 µM
  relative viability: 1.09
[6]; first compound 0.01581 µM
  relative viability: 1.32
[6]; first compound 0.05 µM
  relative viability: 0.936
[6]; first compound 0.1581 µM
  relative viability: 0.984
[6]; first compound 0.5 µM
  relative viability: 1.02
[7]; first compound 0.005 µM
  relative viability: 0.253
[7]; first compound 0.01581 µM
  relative viability: 0.247
[7]; first compound 0.05 µM
  relative viability: 0.215
[7]; first compound 0.1581 µM
  relative viability: 0.261
[7]; first compound 0.5 µM
  relative viability: 0.254
[8]; first compound 0.005 µM
  relative viability: 1.01
[8]; first compound 0.01581 µM
  relative viability: 1.12
[8]; first compound 0.05 µM
  relative viability: 0.88
[8]; first compound 0.1581 µM
  relative viability: 0.888
[8]; first compound 0.5 µM
  relative viability: 1.08
[9]; first compound 0.005 µM
  relative viability: 0.461
[9]; first compound 0.01581 µM
  relative viability: 0.483
[9]; first compound 0.05 µM
  relative viability: 0.456
[9]; first compound 0.1581 µM
  relative viability: 0.434
[9]; first compound 0.5 µM
  relative viability: 0.452
[10]; first compound 0.005 µM
  relative viability: 0.716
[10]; first compound 0.01581 µM
  relative viability: 0.787
[10]; first compound 0.05 µM
  relative viability: 0.626
[10]; first compound 0.1581 µM
  relative viability: 0.67
[10]; first compound 0.5 µM
  relative viability: 0.778
[11]; first compound 0.005 µM
  relative viability: 0.89
[11]; first compound 0.01581 µM
  relative viability: 0.361
[11]; first compound 0.05 µM
  relative viability: 0.346
[11]; first compound 0.1581 µM
  relative viability: 0.317
[11]; first compound 0.5 µM
  relative viability: 0.266
[12]; first compound 0.005 µM
  relative viability: 0.445
[12]; first compound 0.01581 µM
  relative viability: 0.472
[12]; first compound 0.05 µM
  relative viability: 0.28
[12]; first compound 0.1581 µM
  relative viability: 0.453
[12]; first compound 0.5 µM
  relative viability: 0.461
